Data from ChEMBL document CHEMBL3045592, “Studies of O,O-dimethyl α-(2,4-dichlorophenoxyacetoxy)ethylphosphonate (HW02) as a new herbicide. 1. Synthesis and herbicidal activity of HW02 and analogues as novel inhibitors of pyruvate dehydrogenase complex” (J Agric Food Chem, 2011).

Key:
[1] = tested on: Oryza sativa; assay: Inhibition of PDHc in Oryza sativa (rice) shoot mitochondria assessed as decrease in rate of NADH formation using sodium pyruvate as substrate at 0.1 microg/g preincubated for 25 min before substrate addition measured after 1 min by spectrophotometric assay
[2] = tested on: Oryza sativa; assay: Inhibition of PDHc in Oryza sativa (rice) shoot mitochondria assessed as decrease in rate of NADH formation using sodium pyruvate as substrate at 10 microg/g preincubated for 25 min before substrate addition measured after 1 min by spectrophotometric assay
[3] = tested on: Echinochloa crus-galli; assay: Post-emergence herbicidal activity against Echinochloa crus-galli (barnyard grass) assessed as growth inhibition at 300 ai g/ha after 20 days by green house test; format: functional
[4] = tested on: Echinochloa crus-galli; assay: Post-emergence herbicidal activity against Echinochloa crus-galli (barnyard grass) assessed as growth inhibition at 225 ai g/ha after 20 days by green house test; format: functional
[5] = tested on: Echinochloa crus-galli; assay: Post-emergence herbicidal activity against Echinochloa crus-galli (barnyard grass) assessed as growth inhibition at 75 ai g/ha after 20 days by green house test; format: functional
[6] = tested on: Echinochloa crus-galli; assay: Post-emergence herbicidal activity against Echinochloa crus-galli (barnyard grass) assessed as growth inhibition at 18.75 ai g/ha after 20 days by green house test; format: functional
[7] = tested on: Medicago sativa; assay: Post-emergence herbicidal activity against Medicago sativa (alfalfa) assessed as growth inhibition at 450 ai g/ha after 20 days by green house test; format: functional
[8] = tested on: Portulaca oleracea; assay: Post-emergence herbicidal activity against Portulaca oleracea assessed as growth inhibition at 450 ai g/ha after 20 days by green house test; format: functional
[9] = tested on: Portulaca oleracea; assay: Post-emergence herbicidal activity against Portulaca oleracea assessed as growth inhibition at 300 ai g/ha after 20 days by green house test; format: functional
[10] = tested on: Cardamine hirsuta; assay: Post-emergence herbicidal activity against Cardamine hirsuta assessed as growth inhibition at 450 ai g/ha after 20 days by green house test; format: functional
[11] = tested on: Portulaca oleracea; assay: Post-emergence herbicidal activity against Portulaca oleracea assessed as growth inhibition at 225 ai g/ha after 20 days by green house test; format: functional
[12] = tested on: Portulaca oleracea; assay: Post-emergence herbicidal activity against Portulaca oleracea assessed as growth inhibition at 150 ai g/ha after 20 days by green house test; format: functional
[13] = tested on: Portulaca oleracea; assay: Post-emergence herbicidal activity against Portulaca oleracea assessed as growth inhibition at 75 ai g/ha after 20 days by green house test; format: functional
[14] = tested on: Portulaca oleracea; assay: Post-emergence herbicidal activity against Portulaca oleracea assessed as growth inhibition at 37.5 ai g/ha after 20 days by green house test; format: functional
[15] = Toxicity against Oryza sativa (rice) assessed as growth inhibition at 225 ai g/ha post-emergent application measured after 20 days by green house crop selectivity test; format: organism-based; conditions: in vivo, read-out: GI
[16] = Toxicity against Zea mays Gao you 1 (maize) assessed as growth inhibition at 450 ai g/ha post-emergent application measured after 20 days by green house crop selectivity test; format: organism-based; conditions: Gao you 1, zea mays, in vivo, read-out: GI
[17] = Toxicity against Zea mays Gao you 1 (maize) assessed as growth inhibition at 225 ai g/ha post-emergent application measured after 20 days by green house crop selectivity test; format: organism-based; conditions: Gao you 1, zea mays, in vivo, read-out: GI
[18] = tested on: Daucus carota; assay: Post-emergence herbicidal activity against Daucus carota (carrot) assessed as growth inhibition at 600 ai g/ha after 20 days by green house test; format: functional
[19] = tested on: Daucus carota; assay: Post-emergence herbicidal activity against Daucus carota (carrot) assessed as growth inhibition at 450 ai g/ha after 20 days by green house test; format: functional
[20] = tested on: Cardamine hirsuta; assay: Post-emergence herbicidal activity against Cardamine hirsuta assessed as growth inhibition at 18.75 ai g/ha after 20 days by green house test; format: functional
[21] = tested on: Xanthium strumarium; assay: Post-emergence herbicidal activity against Xanthium strumarium (cocklebur) assessed as growth inhibition at 450 ai g/ha after 20 days by green house test; format: functional
[22] = tested on: Xanthium strumarium; assay: Post-emergence herbicidal activity against Xanthium strumarium (cocklebur) assessed as growth inhibition at 300 ai g/ha after 20 days by green house test; format: functional
[23] = tested on: Xanthium strumarium; assay: Post-emergence herbicidal activity against Xanthium strumarium (cocklebur) assessed as growth inhibition at 225 ai g/ha after 20 days by green house test; format: functional
[24] = tested on: Xanthium strumarium; assay: Post-emergence herbicidal activity against Xanthium strumarium (cocklebur) assessed as growth inhibition at 75 ai g/ha after 20 days by green house test; format: functional
[25] = tested on: Xanthium strumarium; assay: Post-emergence herbicidal activity against Xanthium strumarium (cocklebur) assessed as growth inhibition at 37.5 ai g/ha after 20 days by green house test; format: functional
[26] = tested on: Amaranthus retroflexus; assay: Post-emergence herbicidal activity against Amaranthus retroflexus assessed as growth inhibition at 300 ai g/ha after 20 days by green house test; format: functional
[27] = tested on: Amaranthus retroflexus; assay: Post-emergence herbicidal activity against Amaranthus retroflexus assessed as growth inhibition at 225 ai g/ha after 20 days by green house test; format: functional
[28] = tested on: Amaranthus retroflexus; assay: Post-emergence herbicidal activity against Amaranthus retroflexus assessed as growth inhibition at 75 ai g/ha after 20 days by green house test; format: functional
[29] = tested on: Amaranthus retroflexus; assay: Post-emergence herbicidal activity against Amaranthus retroflexus assessed as growth inhibition at 37.5 ai g/ha after 20 days by green house test; format: functional
[30] = tested on: Amaranthus retroflexus; assay: Post-emergence herbicidal activity against Amaranthus retroflexus assessed as growth inhibition at 18.75 ai g/ha after 20 days by green house test; format: functional
[31] = tested on: Eclipta prostrata; assay: Post-emergence herbicidal activity against Eclipta prostrata assessed as growth inhibition at 450 ai g/ha after 20 days by green house test; format: functional
[32] = tested on: Eclipta prostrata; assay: Post-emergence herbicidal activity against Eclipta prostrata assessed as growth inhibition at 300 ai g/ha after 20 days by green house test; format: functional
[33] = tested on: Eclipta prostrata; assay: Post-emergence herbicidal activity against Eclipta prostrata assessed as growth inhibition at 225 ai g/ha after 20 days by green house test; format: functional
[34] = tested on: Eclipta prostrata; assay: Post-emergence herbicidal activity against Eclipta prostrata assessed as growth inhibition at 150 ai g/ha after 20 days by green house test; format: functional
[35] = tested on: Daucus carota; assay: Post-emergence herbicidal activity against Daucus carota (carrot) assessed as growth inhibition at 300 ai g/ha after 20 days by green house test; format: functional
[36] = tested on: Daucus carota; assay: Post-emergence herbicidal activity against Daucus carota (carrot) assessed as growth inhibition at 75 ai g/ha after 20 days by green house test; format: functional
[37] = tested on: Daucus carota; assay: Post-emergence herbicidal activity against Daucus carota (carrot) assessed as growth inhibition at 37.5 ai g/ha after 20 days by green house test; format: functional
[38] = tested on: Brassica rapa subsp. oleifera; assay: Post-emergence herbicidal activity against Brassica rapa subsp. oleifera Si Yue Man assessed as growth inhibition at 450 ai g/ha after 20 days by green house test; format: functional
[39] = tested on: Brassica rapa subsp. oleifera; assay: Post-emergence herbicidal activity against Brassica rapa subsp. oleifera Si Yue Man assessed as growth inhibition at 225 ai g/ha after 20 days by green house test; format: functional
[40] = tested on: Digitaria sanguinalis; assay: Post-emergence herbicidal activity against Digitaria sanguinalis (hairy crabgrass) assessed as growth inhibition at 300 ai g/ha after 20 days by green house test; format: functional
[41] = tested on: Digitaria sanguinalis; assay: Post-emergence herbicidal activity against Digitaria sanguinalis (hairy crabgrass) assessed as growth inhibition at 225 ai g/ha after 20 days by green house test; format: functional
[42] = tested on: Digitaria sanguinalis; assay: Post-emergence herbicidal activity against Digitaria sanguinalis (hairy crabgrass) assessed as growth inhibition at 37.5 ai g/ha after 20 days by green house test; format: functional

SMILES: COP(=O)(OC)C(C)OC(=O)COc1ccc(Cl)cc1Cl (configuration not stated) [CLACYFOS]
- inhibition [1]: 3.4%
- inhibition [2]: 16.9%
- growth inhibition (GI) [3]: 20%
- growth inhibition (GI) [4]: 10%
- growth inhibition (GI) [5]: 0%
- growth inhibition (GI) [6]: 0%
- growth inhibition (GI) [7]: 100%
- growth inhibition (GI) [8]: 100%
- growth inhibition (GI) [9]: 95%
- growth inhibition (GI) [10]: 100%
- growth inhibition (GI) [11]: 90%
- growth inhibition (GI) [12]: 85%
- growth inhibition (GI) [13]: 75%
- growth inhibition (GI) [14]: 65%
- inhibition at 480 h [15]: 0%
- inhibition at 480 h [16]: 0%
- inhibition at 480 h [17]: 0%
- growth inhibition (GI) [18]: 100%
- growth inhibition (GI) [19]: 100%
- growth inhibition (GI) [20]: 75%
- growth inhibition (GI) [21]: 100%
- growth inhibition (GI) [22]: 100%
- growth inhibition (GI) [23]: 95%
- growth inhibition (GI) [24]: 72%
- growth inhibition (GI) [25]: 60%
- growth inhibition (GI) [26]: 100%
- growth inhibition (GI) [27]: 100%
- growth inhibition (GI) [28]: 90%
- growth inhibition (GI) [29]: 82.5%
- growth inhibition (GI) [30]: 65%
- growth inhibition (GI) [31]: 100%
- growth inhibition (GI) [32]: 100%
- growth inhibition (GI) [33]: 96%
- growth inhibition (GI) [34]: 90%
- growth inhibition (GI) [35]: 100%
- growth inhibition (GI) [36]: 90%
- growth inhibition (GI) [37]: 85%
- growth inhibition (GI) [38]: 100%
- growth inhibition (GI) [39]: 100%
- growth inhibition (GI) [40]: 32%
- growth inhibition (GI) [41]: 22.5%
- growth inhibition (GI) [42]: 0%
